Experimental data reported in ChEMBL document CHEMBL1149456, “Substituted 4-hydroxyphenyl sulfonamides as pathway-selective estrogen receptor ligands” (Bioorg Med Chem Lett, 2006).
pEC50, pIC50: −log10 of the molar value.

Columns and labels:
Estrogen receptor [1] = target: T1, Estrogen receptor (Homo sapiens, UniProt P03372); experiment: Inhibition of binding to ER in Ad5-wt-ER-infected HAECT1 cells by NF-kappaB-mediated luciferase reporter; format: functional, cell-based; settings: for IC50: haect1; for pIC50: read-out: IC50
T1 sequence (P03372 whole entry): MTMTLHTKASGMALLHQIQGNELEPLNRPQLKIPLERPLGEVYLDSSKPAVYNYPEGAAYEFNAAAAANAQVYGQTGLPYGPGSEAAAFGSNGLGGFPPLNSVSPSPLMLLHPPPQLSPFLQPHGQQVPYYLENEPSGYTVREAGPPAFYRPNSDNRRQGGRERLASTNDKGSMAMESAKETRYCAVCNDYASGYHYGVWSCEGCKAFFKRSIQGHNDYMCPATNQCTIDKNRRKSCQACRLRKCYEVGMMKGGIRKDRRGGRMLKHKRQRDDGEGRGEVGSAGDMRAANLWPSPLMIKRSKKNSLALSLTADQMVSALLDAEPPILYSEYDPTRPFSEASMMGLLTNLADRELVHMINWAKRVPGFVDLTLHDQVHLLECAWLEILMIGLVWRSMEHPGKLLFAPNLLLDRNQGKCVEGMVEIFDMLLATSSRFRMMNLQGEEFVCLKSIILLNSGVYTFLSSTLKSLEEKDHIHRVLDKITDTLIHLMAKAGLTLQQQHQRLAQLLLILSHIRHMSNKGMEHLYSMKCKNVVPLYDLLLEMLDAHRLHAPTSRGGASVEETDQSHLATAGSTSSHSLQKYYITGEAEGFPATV

Estrogen receptor [2] = target: T1, Estrogen receptor; experiment: Effect on binding to ER in Ad5-wt-ER-infected HAECT1 cells by creatine kinase expression; format: functional, cell-based; settings: for pEC50: read-out: EC50; for EC50: haect1

IC50 (Estrogen receptor [1]) | pEC50 (Estrogen receptor [2]) | pIC50 (Estrogen receptor [1]) | SMILES | EC50 (Estrogen receptor [2])
Not Active |  |  | CCN(c1ccccc1)S(=O)(=O)c1ccc(O)c(OC)c1 | 
 | 7.12 | 7.85 | CCCN(c1c(C)cccc1C)S(=O)(=O)c1ccc(O)c(C)c1 | 
Not Active |  |  | O=S(=O)(Nc1ccccc1)c1ccc(O)cc1 | 
Not Active |  |  | CCN(c1ccc(OC)cc1)S(=O)(=O)c1ccc(O)cc1 | 
 | 6.32 | 7.40 | CCCN(c1ccccc1Br)S(=O)(=O)c1ccc(O)c(C)c1 | 
 | 6.42 | 7.05 | CCN(c1ccccc1Br)S(=O)(=O)c1ccc(O)cc1 | 
 | 6.08 | 5.70 | CCN(c1cccc(OC)c1)S(=O)(=O)c1ccc(O)cc1 | 
 | 6.82 | 7.59 | CCCN(c1c(C)cccc1Cl)S(=O)(=O)c1ccc(O)c(C)c1 | 
 | 6.42 | 7.80 | CCCN(c1c(Cl)cccc1Cl)S(=O)(=O)c1ccc(O)c(C)c1 | 
 | 6.82 | 7.59 | CCCN(c1ccccc1Br)S(=O)(=O)c1ccc(O)cc1 | 
 | 5.67 | 6.48 | CCN(c1ccccc1)S(=O)(=O)c1ccc(O)c(C)c1 | 
 | 5.86 | 6.57 | CCN(c1ccc(O)cc1)S(=O)(=O)c1ccc(O)cc1 | 
 | < 5.60 | 5.86 | CC(C)(C)CN(c1ccccc1)S(=O)(=O)c1ccc(O)cc1 | 
 | 6.79 | 7.13 | CCCN(c1ccccc1F)S(=O)(=O)c1ccc(O)cc1 | 
Not Active |  |  | O=S(=O)(c1ccc(O)cc1)N1CCCc2ccccc21 | 
 | 6.15 | 6.50 | CCCCN(c1ccccc1)S(=O)(=O)c1ccc(O)cc1 | 
 | 6.19 | 7.29 | CCCN(c1ccccc1Cl)S(=O)(=O)c1ccc(O)c(C)c1 | 
 | 5.70 | 6.06 | CC(C)N(c1ccccc1)S(=O)(=O)c1ccc(O)cc1 | 
 | 5.84 | 6.52 | CCCN(c1ccccc1)S(=O)(=O)c1ccc(O)cc1 | 
 | 6.84 | 7.38 | CCCN(c1ccccc1Cl)S(=O)(=O)c1ccc(O)cc1 | 
 | 7.92 | 8.15 | CCCN(c1c(C)cccc1CC)S(=O)(=O)c1ccc(O)c(C)c1 | 
 |  | 7.22 | CCCN(c1ccccc1Br)S(=O)(=O)c1ccc(O)c(C(F)(F)F)c1 | Not Active
Not Active |  |  | O=S(=O)(c1ccc(O)cc1)N(CCO)c1ccccc1 | 
 | 5.80 | 6.39 | CCN(c1ccccc1)S(=O)(=O)c1ccc(O)cc1 | 
 | 6.03 | 6.96 | CCCN(c1ccccc1C)S(=O)(=O)c1ccc(O)c(C)c1 | 
 | 6.61 | 7.27 | CCCN(c1ccccc1C(F)(F)F)S(=O)(=O)c1ccc(O)cc1 | 
Not Active |  |  | CN(c1ccccc1)S(=O)(=O)c1ccc(O)cc1 | 
 | 7.20 | 7.62 | CCCN(c1c(C)cccc1Cl)S(=O)(=O)c1ccc(O)cc1 | 
 | 5.66 | 6.08 | CCN(c1ccccc1OC)S(=O)(=O)c1ccc(O)cc1 | 
 | 6.22 | 6.63 | C=CCN(c1ccccc1)S(=O)(=O)c1ccc(O)cc1 | 

SMILES | IC50 (Estrogen receptor [1]) | pEC50 (Estrogen receptor [2]) | pIC50 (Estrogen receptor [1]) | EC50 (Estrogen receptor [2])
CCCN(c1c(CC)cccc1CC)S(=O)(=O)c1ccc(O)c(C)c1 |  | 6.67 | 8.30 | 
O=S(=O)(c1ccc(O)cc1)N(c1ccccc1)c1ccccc1 |  | 5.81 | 6.39 | 
O=S(=O)(c1ccc(O)cc1)N(Cc1ccccc1)c1ccccc1 |  | 6.62 | 6.30 | 
CC1CCc2ccccc2N1S(=O)(=O)c1ccc(O)cc1 (stereo not drawn) |  | < 6.00 | 6.32 | 
CCCN(c1ccccc1-c1ccccc1)S(=O)(=O)c1ccc(O)c(C)c1 |  | < 5.54 | 6.60 | 
O=S1(=O)c2ccc(O)cc2CCN1c1ccccc1Cl |  |  | 6.05 | Not Active
O=S(=O)(c1ccc(O)cc1)N(c1ccccc1)C1CCCCC1 |  | 6.27 | 6.06 | 
